The text below walks through data of ChEMBL document CHEMBL1128951, “6-(4-Phenyl-benzyloxy-methyl) guvacine. Synthesis, GABA uptake inhibitor and muscarinic properties” (Bioorg Med Chem Lett, 1996).

The nature of experiment [1]: In vitro inhibitory activity against gamma-aminobutyric acid (GABA) uptake. Type of experiment: functional.
Experiment [2] concerns the target T1, Muscarinic acetylcholine receptor M2 (Homo sapiens) (UniProt P08172).
T1 sequence (whole entry): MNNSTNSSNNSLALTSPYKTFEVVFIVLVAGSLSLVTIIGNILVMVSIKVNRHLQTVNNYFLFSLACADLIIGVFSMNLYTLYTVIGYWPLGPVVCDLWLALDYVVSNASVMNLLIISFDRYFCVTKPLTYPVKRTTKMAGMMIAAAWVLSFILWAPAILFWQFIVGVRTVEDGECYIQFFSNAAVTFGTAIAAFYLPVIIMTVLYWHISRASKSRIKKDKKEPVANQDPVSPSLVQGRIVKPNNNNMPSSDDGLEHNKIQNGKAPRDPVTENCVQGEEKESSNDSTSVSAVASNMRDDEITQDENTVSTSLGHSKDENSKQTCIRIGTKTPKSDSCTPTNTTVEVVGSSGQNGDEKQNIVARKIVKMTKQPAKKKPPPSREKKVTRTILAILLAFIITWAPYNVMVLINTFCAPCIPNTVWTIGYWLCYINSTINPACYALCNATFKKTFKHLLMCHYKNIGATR
Description: Compound was evaluated for binding affinity by displacement of [3H]NMS from muscarinic M2 receptor at concentration 100 nM.

Experiment [3] concerns the target T2, Muscarinic acetylcholine receptor M1 (Homo sapiens) (UniProt P11229).
T2 sequence (whole entry): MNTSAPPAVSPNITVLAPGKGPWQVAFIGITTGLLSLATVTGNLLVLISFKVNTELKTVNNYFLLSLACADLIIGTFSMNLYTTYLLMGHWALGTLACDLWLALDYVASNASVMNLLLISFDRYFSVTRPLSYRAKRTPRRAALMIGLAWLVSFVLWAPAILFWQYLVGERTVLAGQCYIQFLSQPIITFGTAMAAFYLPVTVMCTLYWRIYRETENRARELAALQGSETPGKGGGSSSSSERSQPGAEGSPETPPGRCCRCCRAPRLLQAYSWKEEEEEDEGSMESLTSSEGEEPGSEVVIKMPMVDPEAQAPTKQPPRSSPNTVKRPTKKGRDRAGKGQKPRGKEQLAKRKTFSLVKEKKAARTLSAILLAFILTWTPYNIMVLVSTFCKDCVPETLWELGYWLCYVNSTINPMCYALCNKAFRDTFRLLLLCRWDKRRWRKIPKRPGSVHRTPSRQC
Description: Compound was evaluated for binding affinity by displacement of [3H]pirenzepine from muscarinic M1 receptor at concentration 100 nM.

With `O=C(O)C1=CCC(CCC(c2ccccc2)c2ccccc2)NC1` (stereo unspecified), 100 nM corresponded to half-maximal inhibition in experiment [1] (IC50).
Take `O=C(O)C1=CCCN(CCC=C(c2ccccc2)c2ccccc2)C1`: in experiment [1], half-maximal inhibition (IC50) was put at 210 nM.
As to `CCOC(=O)C1=CCC(COCc2ccc(-c3ccccc3)cc2)NC1` (stereo unspecified), the inhibition came to 14% in experiment [2] and 12% in experiment [3].
In the case of `O=C(O)C1=CCC(COCc2ccc(-c3ccccc3)cc2)NC1` (stereo unspecified), the inhibition was determined as 59% in experiment [2] and 57% in experiment [3].
